# From PubChem BioAssay (NCI)
# Where “and” joins values, the source holds several entries; their conditions need not be identical. Equal values may be shown once.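 Results reflect a 48-hour exposure of cells in 96-well plates to compound at five concentrations. The concentration for 50% growth inhibition is given as GI50. TGI: total growth inhibition.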 *1 amine or outer side, *2 acyl side, *3 side chain or, on linkers, in order; H or OH if unused. Where a SMILES comes first, the peptide text is derived from it. Bridges are numbered along the chain shown (N, C = ends). [ ]: non-standard residue; d: D form. The star is where a group is joined. X38 = CC[C@H](C)[C@@H](N[*:1])[C@@H](O)CC(=O)[*:2]; NMeY = CN[C@@H](Cc1ccc(O)cc1)C(=O)O; dNMeL = CN[C@H](CC(C)C)C(=O)O; Hiv = CC(C)[C@H](O)C(=O)O; Pyruvoyl = CC(=O)C(=O)*; Cbz = O=C(OCc1ccccc1)*; OBn = c1ccc(CO*)cc1
# What was measured:
# Assay in all cases: NCI anticancer screen, dose series, 48 h
# SF-539 CNS = test system: SF-539 CNS
# HS 578T breast = test system: HS 578T breast
# SN12C renal = test system: SN12C renal
# MDA-MB-231 breast = test system: MDA-MB-231 breast
# MOLT-4 leukemia = test system: MOLT-4 leukemia
# K-562 leukemia = test system: K-562 leukemia
# SK-MEL-2 melanoma = test system: SK-MEL-2 melanoma
# U251 CNS = test system: U251 CNS
# NCI-H522 lung = test system: NCI-H522 lung
# HCT-116 colon = test system: HCT-116 colon
Compound,TGI (SF-539 CNS),TGI (HS 578T breast),TGI (SN12C renal),TGI (MDA-MB-231 breast),TGI (MOLT-4 leukemia),TGI (K-562 leukemia),TGI (SK-MEL-2 melanoma),TGI (U251 CNS),TGI (NCI-H522 lung),TGI (HCT-116 colon),GI50 (SF-539 CNS),GI50 (HS 578T breast),GI50 (SN12C renal),GI50 (MDA-MB-231 breast),GI50 (MOLT-4 leukemia),GI50 (K-562 leukemia),GI50 (SK-MEL-2 melanoma),GI50 (U251 CNS),GI50 (NCI-H522 lung),GI50 (HCT-116 colon)
C[C@H]1[C@H](C)N(Cc2ccccc2)P(=O)(C(O)/C=C/c2ccccc2)N1Cc1ccccc1 (stereo partly specified),10.2 µM,12.3 µM,8.75 µM,15.1 µM,> 25 µM,> 25 µM,9.66 µM,10 µM,> 25 µM,11.6 µM,–,–,–,–,–,–,–,–,–,–
CCOC(=O)c1cc(Sc2ccc(N)c(C(=O)OCC)c2)ccc1N,> 100 µM,> 100 µM,40.3 µM,> 100 µM,> 100 µM,> 100 µM,> 100 µM,> 100 µM,> 100 µM,> 100 µM,–,–,–,–,–,–,–,–,–,–
COC(=O)CNC(=O)C(C)NC(=O)C(CC(=O)OCc1ccccc1)NC(=O)OCc1ccccc1 (stereo not drawn) (Cbz-Asp(OBn)-Ala-Gly-OMe; configuration not given here),> 100 µM,> 100 µM,> 100 µM,46.9 µM,> 100 µM,> 100 µM,> 100 µM,> 100 µM,> 100 µM,> 100 µM,–,–,–,–,–,–,–,–,–,–
COc1ccc2c(c1)CC[C@@H]1[C@@H]2CC[C@]2(C)C(=O)C3(CCCCC3)C[C@@H]12,> 100 µM,> 100 µM,> 100 µM,> 100 µM,> 100 µM,> 100 µM,> 100 µM,> 100 µM,> 100 µM,> 100 µM,> 100 µM,88.1 µM,> 100 µM,> 100 µM,> 100 µM,> 100 µM,> 100 µM,> 100 µM,> 100 µM,> 100 µM
COc1cc2cc(C(=O)N3CC(CCl)c4c3cc(NC(=O)C(C)(C)c3ccccc3[N+](=O)[O-])c3ccccc43)[nH]c2c(OC)c1OC (stereo unspecified),14.5 µM and 74.9 µM,–,–,–,–,–,–,> 600 µM,–,> 600 µM,6.55 µM,270 µM,146 µM,> 600 µM,33.7 µM,17.9 µM,110 µM,–,38.4 µM,–
O=c1[nH]c(=O)n(C2OC(CO)C(O)C(F)C2O)cc1F (stereo unspecified),> 100 µM,> 100 µM,> 100 µM,> 100 µM,62 µM,> 100 µM,> 100 µM,> 100 µM,> 100 µM,> 100 µM,–,–,–,–,–,–,–,–,–,–
C/C(=N\N)C(CN(C)C)C(c1ccccc1)c1c(O)c2ccccc2oc1=O (stereo unspecified),> 100 µM,> 100 µM,> 100 µM,> 100 µM,> 100 µM,> 100 µM,> 100 µM,> 100 µM,> 100 µM,> 100 µM,–,–,–,–,–,–,–,–,–,–
Cc1c2ccncc2cc2c1sc1ccncc12,17.6 µM,20.4 µM,16.5 µM,21.9 µM,2.45 µM,21.5 µM,17.8 µM,14.7 µM,9.09 µM,13.1 µM,–,–,–,–,–,–,–,–,–,–
Cc1c2cnccc2c(C)c2c1[nH]c1ccc(O)cc12,2.41 µM,> 10 µM,7.35 µM,4.13 µM,> 10 µM,> 10 µM,> 10 µM,> 10 µM,> 10 µM,2.2 µM,–,–,–,–,–,–,–,–,–,–
CSc1nc2ccccc2c(=O)n1/N=C1\C(=O)N(CN2CCCCC2)c2ccc(Cl)cc21,> 100 µM,> 100 µM,> 100 µM,> 100 µM,39.9 µM,> 100 µM,54.6 µM,> 100 µM,37.3 µM,> 100 µM,–,–,–,–,–,–,–,–,–,–
CCOC(=O)C(c1c[nH]c2ccccc12)(c1c[nH]c2ccccc12)c1c[nH]c2ccccc12,> 100 µM,76.2 µM,> 100 µM,> 100 µM,40.8 µM,46.8 µM,59.7 µM,> 100 µM,80.1 µM,> 100 µM,–,–,–,–,–,–,–,–,–,–
COc1ccc(Br)c2c1CC(C(=O)O)CC2 (stereo unspecified),> 100 µM,> 100 µM,> 100 µM,> 100 µM,> 100 µM,> 100 µM,> 100 µM,> 100 µM,> 100 µM,> 100 µM,–,–,–,–,–,–,–,–,–,–
CCOC(=O)CCC(NC(=O)Cc1ccc(Nc2nc3ccccc3nc2-c2ccccc2)cc1)C(=O)OCC (stereo unspecified),> 100 µM,74.6 µM,> 100 µM,53.3 µM,> 100 µM,> 100 µM,72.7 µM,78.1 µM,> 100 µM,> 100 µM,–,–,–,–,–,–,–,–,–,–
O=C1CSC2(CC(/C=C/c3ccccc3O)=NN2c2cccc(S(=O)(=O)O)c2)N1c1nc2ccccc2s1 (stereo unspecified),48.8 µM,> 100 µM,78.7 µM,> 100 µM,82.9 µM,> 100 µM,> 100 µM,> 100 µM,30.4 µM,> 100 µM,–,–,–,–,–,–,–,–,–,–
CCCCc1ccc(Nc2nc(Cl)c3c(ncn3COCCOC(C)=O)n2)cc1,53.4 µM,55.2 µM,34.8 µM,33.4 µM,42.5 µM,51.8 µM,39.2 µM,43.1 µM,33.4 µM,31.3 µM,–,–,–,–,–,–,–,–,–,–
O=c1c2cc(S(=O)(=O)Nc3ccccc3Cl)ccc2ncn1NS(=O)(=O)c1ccc(Br)cc1,> 37.5 µM,> 37.5 µM,> 37.5 µM,> 37.5 µM,> 37.5 µM,> 37.5 µM,> 37.5 µM,> 37.5 µM,> 37.5 µM,> 37.5 µM,–,–,–,–,–,–,–,–,–,–
C[C@@]12C=CC3C/C(=N\C(N)=S)C=C(CCCC4OCCO4)[C@]3(CC1)C2 (stereo partly specified),31.7 µM,72.5 µM,30.8 µM,43.1 µM,59.2 µM,> 100 µM,30.6 µM,48.4 µM,22.9 µM,26.8 µM,–,–,–,–,–,–,–,–,–,–
Clc1cccc(Cl)c1C=NC12CC3CC(CC(C3)C1)C2,> 10 µM,> 10 µM,> 10 µM,> 10 µM,> 10 µM,> 10 µM,> 10 µM,> 10 µM,> 10 µM,> 10 µM,–,–,–,–,–,–,–,–,–,–
O=S1(=O)c2cnccc2NC(=NCc2cccc3ccccc23)N1c1ccccc1,> 100 µM,> 100 µM,> 100 µM,> 100 µM,> 100 µM,> 100 µM,> 30.5 µM,> 100 µM,> 100 µM,> 100 µM,–,–,–,–,–,–,–,–,–,–
O=C1c2cc3c(cc2CC12Cc1cc4c(cc1C2=O)CCCC4)CCCC3,> 100 µM,72.5 µM,> 100 µM,77.1 µM,> 100 µM,> 100 µM,> 100 µM,> 100 µM,> 100 µM,> 100 µM,–,–,–,–,–,–,–,–,–,–
CC1=C(C(=O)Nc2cccc3c2C(=O)NC3=O)CC(C(=O)Nc2cccc3c2C(=O)NC3=O)=C(C)N1,> 100 µM,> 100 µM,> 100 µM,> 100 µM,> 100 µM,> 100 µM,> 100 µM,> 100 µM,> 100 µM,> 100 µM,–,–,–,–,–,–,–,–,–,–
COc1cc(OCc2ccc3nc(-c4ccccc4)c(N)nc3c2)cc(OC)c1OC,44.2 µM,78.3 µM,> 100 µM,68.9 µM,28.8 µM,> 100 µM,43.9 µM,> 100 µM,37.7 µM,21.1 µM,–,–,–,–,–,–,–,–,–,–
CC(C)OP(=O)(OC(C)C)C(C(C)C)N(C)/C(N)=N\C1=NC(C(F)(F)F)(C(F)(F)F)N=C(C(C(F)(F)F)C(F)(F)F)O1 (stereo unspecified),11.8 µM,> 100 µM,10.5 µM,4.33 µM,4.78 µM,5.11 µM,> 100 µM,11.2 µM,3.09 µM,6.6 µM,–,–,–,–,–,–,–,–,–,–
c1csc(-c2cscc2-c2ccsc2)c1,> 93.5 µM,> 31.6 µM,> 100 µM,> 100 µM,> 100 µM,> 100 µM,> 100 µM,> 100 µM,> 100 µM,> 100 µM,–,–,–,–,–,–,–,–,–,–
CCOC(=O)c1ccc(C(=O)OCC)n1-c1cc2cc(c1)CSCc1cc(cc(-n3c(C(=O)OCC)ccc3C(=O)OCC)c1)CSC2,> 10 µM,> 10 µM,> 10 µM,> 10 µM,> 10 µM,> 10 µM,> 10 µM,> 10 µM,> 10 µM,> 10 µM,–,–,–,–,–,–,–,–,–,–
CC[C@H](C)[C@H]1NC(=O)[C@@H](NC(=O)[C@@H](CC(C)C)N(C)C(=O)[C@@H]2CCCN2C(=O)C(C)=O)[C@@H](C)OC(=O)[C@H](Cc2ccc(OC)cc2)N(C)C(=O)[C@@H]2CCCN2C(=O)[C@H](CC(C)C)NC(=O)[C@H](C(C)C)OC(=O)C[C@@H]1O (Pyruvoyl-P[dNMeL]T[X38][Hiv]LP[NMeY](Me); ester 3-C),0.0101 µM,0.283 µM,0.0476 µM,0.112 µM,0.0373 µM,0.104 µM,0.0255 µM,0.154 µM,0.179 µM,0.12 µM,–,–,–,–,–,–,–,–,–,–
Cc1nc2sc(CCl)nn2c(=O)c1Cl,31.3 µM,47.3 µM,26.6 µM,36.4 µM,26.7 µM,28.1 µM,27.7 µM,19.2 µM,12.4 µM,26.2 µM,–,–,–,–,–,–,–,–,–,–
CC1=C/C(=N\OCC(=O)O)CC(c2ccc(C(C)C)cc2)C1 (stereo unspecified),> 100 µM,> 100 µM,> 100 µM,> 100 µM,68.1 µM,> 100 µM,> 100 µM,> 100 µM,79.1 µM,> 100 µM,–,–,–,–,–,–,–,–,–,–
Fc1cc(C2=C[C@H](c3ccc(Cl)cc3)NC(=S)N2)c(Cl)cc1Cl,> 100 µM,> 100 µM,79.6 µM,88.7 µM,> 100 µM,> 100 µM,96.2 µM,> 100 µM,> 100 µM,> 100 µM,–,–,–,–,–,–,–,–,–,–
